Read-outs that look alike come from different tables or passages of the source.
Tests used:
MAPKAP-K2 = MAPKAP-K2 (Homo sapiens, UniProt P49137); experiment: MAPKAP-K2 enzyme activity inhibition (33P-ATP filter plate kinase assay); format: biochemical; conditions: MAPKAP-K2 inhibitory activity; assays conducted at typically 1-100 μM; further: key: +: active; ++: more active; +++: very active
CDK-2 = CDK-2 (Homo sapiens, UniProt P24941); experiment: CDK-2 enzyme activity inhibition (33P-ATP filter plate kinase assay); format: biochemical
Description: [General Procedure for Measurement of CDK-2 Enzyme Activity Inhibition]

CDK-1 = CDK-1 (Homo sapiens, UniProt P06493); experiment: CDK-1 enzyme activity inhibition (33P-ATP filter plate kinase assay)
Sequence of CDK-1 (P06493 whole entry, species assumed): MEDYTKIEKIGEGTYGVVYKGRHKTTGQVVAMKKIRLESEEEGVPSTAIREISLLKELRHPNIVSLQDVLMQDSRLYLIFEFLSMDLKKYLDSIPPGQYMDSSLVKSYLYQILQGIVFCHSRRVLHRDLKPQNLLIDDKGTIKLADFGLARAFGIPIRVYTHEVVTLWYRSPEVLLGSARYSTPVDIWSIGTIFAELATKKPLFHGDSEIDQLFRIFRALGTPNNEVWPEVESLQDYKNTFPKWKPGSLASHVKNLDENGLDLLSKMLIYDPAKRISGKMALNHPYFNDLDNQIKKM
Sequence of CDK-1 (P14635 whole entry partner, species assumed): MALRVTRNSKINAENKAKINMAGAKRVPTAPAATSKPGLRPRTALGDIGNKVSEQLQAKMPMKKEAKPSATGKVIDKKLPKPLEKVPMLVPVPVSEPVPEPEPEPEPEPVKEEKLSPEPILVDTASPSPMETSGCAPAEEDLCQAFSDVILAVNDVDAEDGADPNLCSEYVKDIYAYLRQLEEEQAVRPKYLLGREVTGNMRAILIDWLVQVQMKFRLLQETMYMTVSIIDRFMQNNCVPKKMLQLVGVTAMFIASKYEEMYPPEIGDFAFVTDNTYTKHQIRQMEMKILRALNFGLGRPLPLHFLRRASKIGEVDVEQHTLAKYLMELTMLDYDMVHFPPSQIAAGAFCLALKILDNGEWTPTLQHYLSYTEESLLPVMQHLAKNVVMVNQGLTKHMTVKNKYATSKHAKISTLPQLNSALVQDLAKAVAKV
Description: [General Procedure for Measurement of CDK-1 Enzyme Activity Inhibition]
Compounds were dissolved in DMSO at a concentration of 10 mM and stored in aliquots at −20° C. Compounds in DMSO from these stock aliquots were diluted in DMSO to produce the required range of 30× stock solutions. These stock solutions were then subjected to 1:3 dilutions in order to prepare the required range of 10× stock solutions and 5 μL of each solution was used per 50 μL reaction.
The kinase reaction was conducted in a round-bottomed polypropylene 96-well plate. CDK-1 was diluted to 0.5 U/μL in diluent buffer (50 mM Tris/HCl. pH7.5, 0.1 mM EGTA, 0.1% (v/v) β-mercaptoethanol, 1 mg/mL BSA). 5 μL compound or 30% DMSO was added to each well followed by 25 μL substrate cocktail (final concentration: 10 μM ATP, 50 μM peptide ([sequence]), 0.5 μCi ^33P-γ-ATP in 50 mM Tris-HCl (pH 7.5), 1 mM EGTA, 2 mM DTT, 10 mM MgCl2, 0.01% Brij-35). The reaction was initiated with the addition of 20 μL enzyme solution per well or 20 μL of diluent buffer without enzyme. The plate was shaken for 10 seconds and then left at room temperature for 15 minutes. The reaction was terminated with 50 μL 150 mM phosphoric acid. 90 μL of the reaction mixture was then transferred into a 96-well P81 filter plate (Whatmann) and incubated at room temperature for 5 minutes. The filter plate was then washed 4 times with 200 μL 75 mM phosphoric acid per well on a plate vacuum manifold (Millipore) and dried in an oven for 2-3 hours. Packard MicroScint ‘0’ (30 μL) was then added to each well, the plate was miffed for 30 minutes and subjected to liquid scintillation counting on a Packard TopCount.

[1] = read-out: CDK-2 inhibition IC50

Sequence of MAPKAP-K2 (P49137 whole entry): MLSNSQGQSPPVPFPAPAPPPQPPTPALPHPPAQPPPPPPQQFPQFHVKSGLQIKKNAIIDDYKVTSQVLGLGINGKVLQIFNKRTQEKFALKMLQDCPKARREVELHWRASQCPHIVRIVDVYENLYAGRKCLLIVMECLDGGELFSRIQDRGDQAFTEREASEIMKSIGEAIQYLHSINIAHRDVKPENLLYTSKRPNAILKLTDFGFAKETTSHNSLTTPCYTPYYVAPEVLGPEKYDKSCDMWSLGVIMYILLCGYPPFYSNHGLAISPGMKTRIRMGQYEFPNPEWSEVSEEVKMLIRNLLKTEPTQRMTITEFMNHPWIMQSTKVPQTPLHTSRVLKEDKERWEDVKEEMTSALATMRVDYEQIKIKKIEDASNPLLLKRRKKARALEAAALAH

CCOc1ccc(Nc2c(C)c(N[C@H]3CC[C@H](N)CC3)nc3ccnn23)cc1 [Compound 32]
activity (efficacy against MAPKAP-K2) (MAPKAP-K2): +++
IC50 (CDK-2; [1]): < 100 µM
IC50 (CDK-1): < 100 µM

CCc1c(N[C@H]2CC[C@H](N)CC2)nc2ccnn2c1Nc1ccccc1C [Compound 29]
activity (efficacy against MAPKAP-K2) (MAPKAP-K2): +++
melting point: 176 to 178 °C
IC50 (CDK-1): < 100 µM

CCc1c(N[C@H]2CC[C@H](N)CC2)nc2ccnn2c1Nc1ccc(OC)c(C(F)(F)F)c1 [Compound 113]
activity (efficacy against MAPKAP-K2) (MAPKAP-K2): ++
IC50 (CDK-2; [1]): < 100 µM
melting point: 181 to 183 °C

C=C(C)CNc1c(CC)c(N[C@H]2CC[C@H](N)CC2)nc2ccnn12 [Compound 46]
activity (efficacy against MAPKAP-K2) (MAPKAP-K2): ++
IC50 (CDK-2; [1]): < 100 µM
melting point: 91 to 93 °C

CCc1c(N[C@H]2CC[C@H](N)CC2)nc2ccnn2c1Nc1ccc(OC)c(Cl)c1 [Compound 55]
activity (efficacy against MAPKAP-K2) (MAPKAP-K2): +++
IC50 (CDK-2; [1]): < 100 µM
melting point: 189 to 192 °C

CCc1c(N[C@H]2CC[C@H](N)CC2)nc2ccnn2c1Nc1cccc(I)c1 [Compound 60]
activity (efficacy against MAPKAP-K2) (MAPKAP-K2): +++
IC50 (CDK-2; [1]): < 100 µM
melting point: 199 to 201 °C

CCc1c(N[C@H]2CC[C@H](N)CC2)nc2ccnn2c1Nc1ccc(C)c(C)c1 [Compound 30]
activity (efficacy against MAPKAP-K2) (MAPKAP-K2): +++
IC50 (CDK-1): < 100 µM

Cc1c(N[C@H]2CC[C@H](N)CC2)nc2ccnn2c1Nc1ccccc1Cl [Compound 15]
activity (efficacy against MAPKAP-K2) (MAPKAP-K2): +++
IC50 (CDK-2): < 100 µM
IC50 (CDK-1): < 100 µM

CCc1c(N[C@H]2CC[C@H](N)CC2)nc2ccnn2c1Nc1ccc(F)c(Cl)c1 [Compound 23]
activity (efficacy against MAPKAP-K2) (MAPKAP-K2): +++
IC50 (CDK-2): < 100 µM
IC50 (CDK-1): < 100 µM

CCc1c(N[C@H]2CC[C@H](N)CC2)nc2ccnn2c1Nc1ccc(Oc2ccc(C)cc2)cc1 [Compound 57]
activity (efficacy against MAPKAP-K2) (MAPKAP-K2): +++
IC50 (CDK-2; [1]): < 100 µM
melting point: 102 to 104 °C

CCc1c(N[C@H]2CC[C@H](N)CC2)nc2ccnn2c1Nc1cccc(C(N)=O)c1 [Compound 151]
activity (efficacy against MAPKAP-K2) (MAPKAP-K2): ++
IC50 (CDK-2; [1]): < 100 µM
melting point: 206 to 210 °C

CCc1c(N[C@H]2CC[C@H](N)CC2)nc2ccnn2c1Nc1ccc(Oc2ccccc2)cc1 [Compound 33]
activity (efficacy against MAPKAP-K2) (MAPKAP-K2): +++
melting point: 147 to 149 °C
IC50 (CDK-1): < 100 µM

CC(C)c1c(N[C@H]2CC[C@H](N)CC2)nc2ccnn2c1Nc1ccc(F)c(Cl)c1 [Compound 115]
activity (efficacy against MAPKAP-K2) (MAPKAP-K2): +++
IC50 (CDK-2; [1]): < 100 µM
melting point: 165 to 168 °C

CSc1ccc(Nc2c(C)c(N[C@H]3CC[C@H](N)CC3)nc3ccnn23)cc1 [Compound 65]
activity (efficacy against MAPKAP-K2) (MAPKAP-K2): +++
IC50 (CDK-2; [1]): < 100 µM
melting point: 185 to 187 °C

N[C@H]1CC[C@H](Nc2cc(Nc3ccc(F)c(Cl)c3)n3ncc(Br)c3n2)CC1 [Compound 2]
activity (efficacy against MAPKAP-K2) (MAPKAP-K2): ++
IC50 (CDK-2): < 100 µM
IC50 (CDK-1): < 100 µM

Cc1c(N[C@H]2CC[C@H](N)CC2)nc2ccnn2c1Nc1ccccc1 [Compound 102]
activity (efficacy against MAPKAP-K2) (MAPKAP-K2): +++
IC50 (CDK-2; [1]): < 100 µM
melting point: 96 to 99 °C

CCc1c(N[C@H]2CC[C@H](N)CC2)nc2ccnn2c1NCc1ccccc1Cl [Compound 38]
activity (efficacy against MAPKAP-K2) (MAPKAP-K2): ++
IC50 (CDK-2; [1]): < 100 µM
melting point: 63 to 65 °C

NC1CCC(Nc2nc3ccnn3c(Nc3ccc(F)c(Cl)c3)c2-c2ccccc2)CC1 (centres unmarked) [Compound 12]
activity (efficacy against MAPKAP-K2) (MAPKAP-K2): +++
IC50 (CDK-2): < 100 µM
IC50 (CDK-1): < 100 µM

Cc1c(N[C@H]2CC[C@H](N)CC2)nc2ccnn2c1Nc1cccc(O)c1 [Compound 88]
activity (efficacy against MAPKAP-K2) (MAPKAP-K2): +++
IC50 (CDK-2; [1]): < 100 µM
melting point: 145 to 150 °C

CCc1c(N[C@H]2CC[C@H](N)CC2)nc2ccnn2c1Nc1ccc(Br)cc1 [Compound 159]
activity (efficacy against MAPKAP-K2) (MAPKAP-K2): +++
IC50 (CDK-2; [1]): < 100 µM
melting point: 184 to 187 °C

N[C@H]1CC[C@H](Nc2cc(Nc3ccc(F)c(Cl)c3)n3ncc(I)c3n2)CC1 [Compound 49]
activity (efficacy against MAPKAP-K2) (MAPKAP-K2): ++
IC50 (CDK-2; [1]): < 100 µM
melting point: 153 to 155 °C

Cc1c(N[C@H]2CC[C@H](N)CC2)nc2ccnn2c1Nc1ccc(F)c(Cl)c1 [Compound 10]
activity (efficacy against MAPKAP-K2) (MAPKAP-K2): +++
IC50 (CDK-2): < 100 µM
IC50 (CDK-1): < 100 µM

CCCc1c(N[C@H]2CC[C@H](N)CC2)nc2ccnn2c1Nc1ccc(F)c(Cl)c1 [Compound 11]
activity (efficacy against MAPKAP-K2) (MAPKAP-K2): +++
IC50 (CDK-2): < 100 µM
IC50 (CDK-1): < 100 µM

Cc1c(N[C@H]2CC[C@H](N)CC2)nc2ccnn2c1Nc1cccc(Br)c1 [Compound 77]
activity (efficacy against MAPKAP-K2) (MAPKAP-K2): +++
IC50 (CDK-2; [1]): < 100 µM
melting point: 215 to 216 °C

CCc1c(N[C@H]2CC[C@H](N)CC2)nc2ccnn2c1Nc1ccc(Cl)cc1 [Compound 26]
activity (efficacy against MAPKAP-K2) (MAPKAP-K2): +++
IC50 (CDK-1): < 100 µM

CCOC(=O)c1cnn2c(Nc3ccc(F)c(Cl)c3)cc(N[C@H]3CC[C@H](N)CC3)nc12 [Compound 9]
melting point: 221 to 223 °C
IC50 (CDK-1): < 100 µM

CCc1c(N[C@H]2CC[C@H](N)CC2)nc2ccnn2c1Nc1ccc(SC)cc1 [Compound 36]
activity (efficacy against MAPKAP-K2) (MAPKAP-K2): +++
melting point: 190 to 192 °C
IC50 (CDK-1): < 100 µM

Cc1c(N[C@H]2CC[C@H](N)CC2)nc2ccnn2c1Nc1ccc(N2CCCCC2)cc1 [Compound 129]
activity (efficacy against MAPKAP-K2) (MAPKAP-K2): +++
IC50 (CDK-2; [1]): < 100 µM
melting point: 58 to 66 °C

Cc1c(N[C@H]2CC[C@H](N)CC2)nc2ccnn2c1Nc1cccc(Cl)c1 [Compound 85]
activity (efficacy against MAPKAP-K2) (MAPKAP-K2): +++
IC50 (CDK-2; [1]): < 100 µM
melting point: 209 to 212 °C

CCc1c(N[C@H]2CC[C@H](N)CC2)nc2ccnn2c1Nc1ccccc1Cl [Compound 16]
activity (efficacy against MAPKAP-K2) (MAPKAP-K2): +++
IC50 (CDK-2): < 100 µM
IC50 (CDK-1): < 100 µM

N[C@H]1CC[C@H](Nc2nc3ccnn3c(Nc3ccc(F)c(Cl)c3)c2Cc2ccccc2)CC1 [Compound 24]
activity (efficacy against MAPKAP-K2) (MAPKAP-K2): +++
IC50 (CDK-1): < 100 µM

Cc1c(N[C@H]2CC[C@H](N)CC2)nc2ccnn2c1Nc1ccc(-n2ccnc2)cc1 [Compound 118]
activity (efficacy against MAPKAP-K2) (MAPKAP-K2): +++
IC50 (CDK-2; [1]): < 100 µM
melting point: 210 to 215 °C

Cc1c(N[C@H]2CC[C@H](N)CC2)nc2ccnn2c1Nc1cccc(CO)c1 [Compound 97]
activity (efficacy against MAPKAP-K2) (MAPKAP-K2): +++
IC50 (CDK-2; [1]): < 100 µM
melting point: 97 to 100 °C

C=CCc1c(N[C@H]2CC[C@H](N)CC2)nc2ccnn2c1Nc1ccc(F)c(Cl)c1 [Compound 19]
activity (efficacy against MAPKAP-K2) (MAPKAP-K2): +++
melting point: 176 to 178 °C
IC50 (CDK-1): < 100 µM

Cc1c(N[C@H]2CC[C@H](N)CC2)nc2ccnn2c1Nc1ccc2ncsc2c1 [Compound 112]
activity (efficacy against MAPKAP-K2) (MAPKAP-K2): +++
IC50 (CDK-2; [1]): < 100 µM
melting point: 100 to 108 °C

Cc1nc2ccc(Nc3c(C)c(N[C@H]4CC[C@H](N)CC4)nc4ccnn34)cc2s1 [Compound 155]
activity (efficacy against MAPKAP-K2) (MAPKAP-K2): +++
IC50 (CDK-2; [1]): < 100 µM
melting point: 210 to 215 °C

CCc1c(N[C@H]2CC[C@H](N)CC2)nc2ccnn2c1Nc1ccc(OC)c(OC)c1 [Compound 58]
activity (efficacy against MAPKAP-K2) (MAPKAP-K2): ++
IC50 (CDK-2; [1]): < 100 µM
melting point: 181 to 185 °C

CCCCOc1ccc(Nc2c(CCCO)c(N[C@H]3CC[C@H](N)CC3)nc3ccnn23)cc1 [Compound 53]
activity (efficacy against MAPKAP-K2) (MAPKAP-K2): +++
IC50 (CDK-2; [1]): < 100 µM
melting point: 116 to 118 °C

CCCCOc1ccc(Nc2c(CC)c(N[C@H]3CC[C@H](N)CC3)nc3ccnn23)cc1 [Compound 56]
activity (efficacy against MAPKAP-K2) (MAPKAP-K2): +++
IC50 (CDK-2; [1]): < 100 µM
melting point: 144 to 148 °C

CCOc1cccc(Nc2c(CC)c(N[C@H]3CC[C@H](N)CC3)nc3ccnn23)c1 [Compound 61]
activity (efficacy against MAPKAP-K2) (MAPKAP-K2): +++
IC50 (CDK-2; [1]): < 100 µM
melting point: 150 to 152 °C

CCc1c(N[C@H]2CC[C@H](N)CC2)nc2ccnn2c1Nc1ccc(OC)cc1 [Compound 28]
activity (efficacy against MAPKAP-K2) (MAPKAP-K2): +++
IC50 (CDK-2; [1]): < 100 µM
IC50 (CDK-1): < 100 µM

C=CCc1c(N[C@H]2CC[C@H](N)CC2)nc2ccnn2c1Nc1ccccc1Cl [Compound 17]
activity (efficacy against MAPKAP-K2) (MAPKAP-K2): +++
melting point: 153 to 155 °C
IC50 (CDK-1): < 100 µM

From patent publication US7557110B2, “Pyrazolo[1,5-A] pyrimidine derivatives” (Teijin Pharma Limited, priority 2003, dated 2009)
